Earlier results as cited in US20030134851A1, “Methods and compositions for providing glutamine” (priority 2001, published 2003).

Conditions: rodents; cited from earlier work

In the case of O=C1CC[C@@H](C(=O)O)N1 [pyroglutamic acid], the Neurotoxicity is given as “is a neurotoxin in rodents”.
